Reference: the OligoGym collection
Oligonucleotides are given in HELM: sugar(base)linkage, 5' to 3'; d 2'-deoxyribose, r ribose, m 2'-O-methylribose, p phosphate. ss, as = sense and antisense strand

What follows are substances tested against UBE2D3 (assay: reporter assay of Huesken 2005). Conditions: siRNA.
Note: test concentration or dose not given here.

Substance	normalised inhibition (eCFP-eYFP dual reporter) [%]
RNA1{r(C)p.r(A)p.r(A)p.r(G)p.r(G)p.r(C)p.r(G)p.r(G)p.r(U)p.r(G)p.r(U)p.r(A)p.r(U)p.r(U)p.r(C)p.r(U)p.r(U)p.r(U)p.r(U)p.d(T)p.d(T)}|RNA2{r(A)p.r(A)p.r(A)p.r(A)p.r(G)p.r(A)p.r(A)p.r(U)p.r(A)p.r(C)p.r(A)p.r(C)p.r(C)p.r(G)p.r(C)p.r(C)p.r(U)p.r(U)p.r(G)p.d(A)p.d(T)}$$$RNA1{StrandType:ss}|RNA2{StrandType:as}$	104
RNA1{r(C)p.r(A)p.r(A)p.r(U)p.r(U)p.r(U)p.r(C)p.r(U)p.r(A)p.r(A)p.r(A)p.r(G)p.r(U)p.r(U)p.r(C)p.r(U)p.r(U)p.r(U)p.r(U)p.d(T)p.d(T)}|RNA2{r(A)p.r(A)p.r(A)p.r(A)p.r(G)p.r(A)p.r(A)p.r(C)p.r(U)p.r(U)p.r(U)p.r(A)p.r(G)p.r(A)p.r(A)p.r(A)p.r(U)p.r(U)p.r(G)p.d(T)p.d(T)}$$$RNA1{StrandType:ss}|RNA2{StrandType:as}$	80.6
RNA1{r(C)p.r(A)p.r(G)p.r(C)p.r(A)p.r(C)p.r(A)p.r(A)p.r(U)p.r(G)p.r(U)p.r(U)p.r(C)p.r(U)p.r(G)p.r(C)p.r(A)p.r(G)p.r(G)p.d(T)p.d(T)}|RNA2{r(C)p.r(C)p.r(U)p.r(G)p.r(C)p.r(A)p.r(G)p.r(A)p.r(A)p.r(C)p.r(A)p.r(U)p.r(U)p.r(G)p.r(U)p.r(G)p.r(C)p.r(U)p.r(G)p.d(G)p.d(A)}$$$RNA1{StrandType:ss}|RNA2{StrandType:as}$	87.8
RNA1{r(C)p.r(A)p.r(G)p.r(C)p.r(A)p.r(U)p.r(U)p.r(U)p.r(G)p.r(U)p.r(C)p.r(U)p.r(C)p.r(G)p.r(A)p.r(U)p.r(A)p.r(U)p.r(U)p.d(T)p.d(T)}|RNA2{r(A)p.r(A)p.r(U)p.r(A)p.r(U)p.r(C)p.r(G)p.r(A)p.r(G)p.r(A)p.r(C)p.r(A)p.r(A)p.r(A)p.r(U)p.r(G)p.r(C)p.r(U)p.r(G)p.d(C)p.d(C)}$$$RNA1{StrandType:ss}|RNA2{StrandType:as}$	95.2
RNA1{r(C)p.r(A)p.r(G)p.r(U)p.r(A)p.r(A)p.r(U)p.r(G)p.r(G)p.r(C)p.r(A)p.r(G)p.r(C)p.r(A)p.r(U)p.r(U)p.r(U)p.r(G)p.r(U)p.d(T)p.d(T)}|RNA2{r(A)p.r(C)p.r(A)p.r(A)p.r(A)p.r(U)p.r(G)p.r(C)p.r(U)p.r(G)p.r(C)p.r(C)p.r(A)p.r(U)p.r(U)p.r(A)p.r(C)p.r(U)p.r(G)p.d(T)p.d(T)}$$$RNA1{StrandType:ss}|RNA2{StrandType:as}$	97.4
RNA1{r(C)p.r(A)p.r(U)p.r(U)p.r(G)p.r(G)p.r(C)p.r(A)p.r(A)p.r(G)p.r(C)p.r(C)p.r(A)p.r(C)p.r(A)p.r(A)p.r(U)p.r(U)p.r(A)p.d(T)p.d(T)}|RNA2{r(U)p.r(A)p.r(A)p.r(U)p.r(U)p.r(G)p.r(U)p.r(G)p.r(G)p.r(C)p.r(U)p.r(U)p.r(G)p.r(C)p.r(C)p.r(A)p.r(A)p.r(U)p.r(G)p.d(A)p.d(A)}$$$RNA1{StrandType:ss}|RNA2{StrandType:as}$	100
RNA1{r(C)p.r(A)p.r(U)p.r(U)p.r(U)p.r(A)p.r(C)p.r(A)p.r(A)p.r(C)p.r(A)p.r(A)p.r(G)p.r(A)p.r(A)p.r(U)p.r(U)p.r(U)p.r(A)p.d(T)p.d(T)}|RNA2{r(U)p.r(A)p.r(A)p.r(A)p.r(U)p.r(U)p.r(C)p.r(U)p.r(U)p.r(G)p.r(U)p.r(U)p.r(G)p.r(U)p.r(A)p.r(A)p.r(A)p.r(U)p.r(G)p.d(C)p.d(A)}$$$RNA1{StrandType:ss}|RNA2{StrandType:as}$	70
RNA1{r(C)p.r(C)p.r(A)p.r(G)p.r(A)p.r(G)p.r(A)p.r(U)p.r(U)p.r(G)p.r(C)p.r(A)p.r(C)p.r(G)p.r(G)p.r(A)p.r(U)p.r(C)p.r(U)p.d(T)p.d(T)}|RNA2{r(A)p.r(G)p.r(A)p.r(U)p.r(C)p.r(C)p.r(G)p.r(U)p.r(G)p.r(C)p.r(A)p.r(A)p.r(U)p.r(C)p.r(U)p.r(C)p.r(U)p.r(G)p.r(G)p.d(C)p.d(A)}$$$RNA1{StrandType:ss}|RNA2{StrandType:as}$	82
RNA1{r(C)p.r(C)p.r(A)p.r(U)p.r(U)p.r(U)p.r(G)p.r(U)p.r(U)p.r(C)p.r(A)p.r(C)p.r(U)p.r(G)p.r(C)p.r(U)p.r(A)p.r(U)p.r(G)p.d(T)p.d(T)}|RNA2{r(C)p.r(A)p.r(U)p.r(A)p.r(G)p.r(C)p.r(A)p.r(G)p.r(U)p.r(G)p.r(A)p.r(A)p.r(C)p.r(A)p.r(A)p.r(A)p.r(U)p.r(G)p.r(G)p.d(A)p.d(T)}$$$RNA1{StrandType:ss}|RNA2{StrandType:as}$	94.5
RNA1{r(C)p.r(C)p.r(U)p.r(A)p.r(C)p.r(A)p.r(G)p.r(A)p.r(C)p.r(U)p.r(A)p.r(C)p.r(C)p.r(C)p.r(C)p.r(U)p.r(U)p.r(C)p.r(A)p.d(T)p.d(T)}|RNA2{r(U)p.r(G)p.r(A)p.r(A)p.r(G)p.r(G)p.r(G)p.r(G)p.r(U)p.r(A)p.r(G)p.r(U)p.r(C)p.r(U)p.r(G)p.r(U)p.r(A)p.r(G)p.r(G)p.d(A)p.d(A)}$$$RNA1{StrandType:ss}|RNA2{StrandType:as}$	99.9
RNA1{r(C)p.r(C)p.r(U)p.r(A)p.r(G)p.r(U)p.r(G)p.r(C)p.r(C)p.r(A)p.r(G)p.r(A)p.r(G)p.r(A)p.r(U)p.r(U)p.r(G)p.r(C)p.r(A)p.d(T)p.d(T)}|RNA2{r(U)p.r(G)p.r(C)p.r(A)p.r(A)p.r(U)p.r(C)p.r(U)p.r(C)p.r(U)p.r(G)p.r(G)p.r(C)p.r(A)p.r(C)p.r(U)p.r(A)p.r(G)p.r(G)p.d(G)p.d(G)}$$$RNA1{StrandType:ss}|RNA2{StrandType:as}$	86.2
RNA1{r(C)p.r(C)p.r(U)p.r(U)p.r(C)p.r(A)p.r(A)p.r(A)p.r(C)p.r(C)p.r(A)p.r(C)p.r(C)p.r(U)p.r(A)p.r(A)p.r(G)p.r(G)p.r(U)p.d(T)p.d(T)}|RNA2{r(A)p.r(C)p.r(C)p.r(U)p.r(U)p.r(A)p.r(G)p.r(G)p.r(U)p.r(G)p.r(G)p.r(U)p.r(U)p.r(U)p.r(G)p.r(A)p.r(A)p.r(G)p.r(G)p.d(G)p.d(G)}$$$RNA1{StrandType:ss}|RNA2{StrandType:as}$	94.5
RNA1{r(C)p.r(U)p.r(A)p.r(A)p.r(G)p.r(G)p.r(U)p.r(U)p.r(G)p.r(C)p.r(A)p.r(U)p.r(U)p.r(U)p.r(A)p.r(C)p.r(A)p.r(A)p.r(C)p.d(T)p.d(T)}|RNA2{r(G)p.r(U)p.r(U)p.r(G)p.r(U)p.r(A)p.r(A)p.r(A)p.r(U)p.r(G)p.r(C)p.r(A)p.r(A)p.r(C)p.r(C)p.r(U)p.r(U)p.r(A)p.r(G)p.d(G)p.d(T)}$$$RNA1{StrandType:ss}|RNA2{StrandType:as}$	80.9
RNA1{r(C)p.r(U)p.r(A)p.r(C)p.r(A)p.r(G)p.r(A)p.r(C)p.r(U)p.r(A)p.r(C)p.r(C)p.r(C)p.r(C)p.r(U)p.r(U)p.r(C)p.r(A)p.r(A)p.d(T)p.d(T)}|RNA2{r(U)p.r(U)p.r(G)p.r(A)p.r(A)p.r(G)p.r(G)p.r(G)p.r(G)p.r(U)p.r(A)p.r(G)p.r(U)p.r(C)p.r(U)p.r(G)p.r(U)p.r(A)p.r(G)p.d(G)p.d(A)}$$$RNA1{StrandType:ss}|RNA2{StrandType:as}$	94.9
